Experiments:
[1] = test system: BDNF protein in nodose ganglion (NG); experiment: BDNF ELISA of intact nodose ganglion after in vivo CX546 treatment; design: species or system mouse; conditions: CX546 40 mg/kg i.p. b.i.d. 3 days; for NG BDNF content: mean±SEM, n=6
Method: (§1) Beginning on P25, wildtype and Mecp2 null littermates were acclimatized to the injection protocol to reduce stress, first by handling for 10 min./day for 3 days, followed by saline injections (0.9% NaCl, i.p., b.i.d.) at 8:00 AM and 8:00 PM, for an additional 3 days. Subsequently, mice were assigned either to drug treatment (CX546, 40 mg/kg in 16.5% 2-hydroxypropyl-β-cyclodextrin, i.p., b.i.d.) or vehicle injections (cyclodextrin alone). On the day of their last injection, mice were trained in the plethysmograph recording chamber for one hour. Eighteen to 24 hours after their last injection, on P35, mice were returned to the chamber for recording of respiratory activity.
(§2) Breathing was recorded in unrestrained mice using a whole-body flow plethysmograph (Buxco II; Buxco Research Systems, Wilmington, N.C.) in which a constant bias flow supply connected to the animal recording chamber ensured continuous inflow of fresh air (1 L/min.). Ambient temperature was maintained between 23 and 25° C. Breathing traces were analyzed using Biosystem XA software (Buxco Research Systems). After the recording sessions, mice were euthanized with CO2 and tissue processed for BDNF immunoassay.
BDNF protein levels in intact NG or in cultured NG cells were measured by ELISA using the BDNF Emax Immunoassay System (Promega). Protein extracts from one intact NG or from an equivalent number of cultured cells were used for ELISA.
(§3) Wildtype and Mecp2 null littermates were treated for 3 days with CX546 (40 mg/kg in cyclodextrin, i.p., b.i.d.) or vehicle. Respiratory function was monitored by whole-body plethysmography 18-24 hours after the last injection, as described in Methods. At the end of the recording session the mice were sacrificed and the NG removed for BDNF ELISA. […] Treatment of wildtype mice with CX546 had no effect on NO BDNF content.

[2] = test system: wildtype and Mecp2 null mice; experiment: Whole-body plethysmography of respiratory function after CX546 treatment; assay type: in vivo, mouse; conditions: for effect on breathing frequency and minute volume/weight: CX546 40 mg/kg b.i.d. 3 days; for breathing frequency / Coefficient of variation of breathing frequency / minute volume/weight / tidal volume/weight: CX546 40 mg/kg i.p. b.i.d. 3 days; for breathing frequency: 18-24 h after last injection
Method: as §1, §2, §3

[3] = in vivo; cited from earlier work

SMILES | increase in BDNF protein content compared to vehicle-treated mutants ([1]; P35 Mecp2 null mice) | NG BDNF content ([1]; P35 Mecp2 null mice) | NG BDNF content ([1]; P35 wildtype mice) | effect on NG BDNF content ([1]; wildtype mice) | effect on breathing frequency and minute volume/weight ([2]; P35 Mecp2 null mice) | breathing frequency ([2]; P35 Mecp2 null mice, n=9) | Coefficient of variation of breathing frequency ([2]; P35 Mecp2 null mice, n=9) | minute volume/weight ([2]; P35 Mecp2 null mice, n=9) | tidal volume/weight ([2]; P35 Mecp2 null mice, n=9) | breathing frequency ([2]; P35 wildtype mice, n=7) | Coefficient of variation of breathing frequency ([2]; P35 wildtype mice, n=7) | minute volume/weight ([2]; P35 wildtype mice, n=7) | tidal volume/weight ([2]; P35 wildtype mice, n=7) | effect on breathing frequency and minute volume/weight ([2]; wildtype mice) | half-life [3] | BDNF protein compared to unstimulated controls (NG neurons)
O=C(c1ccc2c(c1)OCCO2)N1CCCCC1 [CX546, 1-(1,4-benzodioxan-6-ylcarbonyl)piperidine] | 42% | 114±4 pg BDNF/mL | 167±5 pg BDNF/mL | no effect | completely restores wildtype frequency and minute volume/weight | 176±8 breath/min. | 23.4±1.5% | 1.13 ± 0.07 mL/min/g | 6.5 ± 0.3 µL/g | 177±6 breath/min. | 18.5±1.2% | 1.14 ± 0.09 mL/min/g | 6.4 ± 0.5 µL/g | no effect | less than an hour | –
[Cl-].[K+] [KCI, potassium chloride] | – | – | – | – | – | – | – | – | – | – | – | – | – | – | – | significant increase

Reference: patent US20100035877A1, “METHODS AND COMPOSITIONS FOR TREATING PATHOLOGIES ASSOCIATED WITH BDNF SIGNALING” (priority 2006, published 2010)
